Assay results reported in patent US9878999B2, “Proteasome chymotrypsin-like inhibition using PI-1833 analogs” (H. Lee Moffitt Cancer Center and Research Institute, Inc., priority 2011, dated 2018).
Read-outs that look alike come from different tables or passages of the source. Each block holds one molecule with its values, some of them ahead of it.

Molecular target: CT-L activity of purified 20S proteasome (Homo sapiens, UniProt P20618+P28074)
Assay: in vitro CT-L activity of purified 20S proteasome
Type: biochemical
Conditions: for inhibition at 10 µM: read-out: Screening Results (% Inhibition @ 10 μM) Chymotrypsin-like; for fold loss of CT-L activity: compared to 11ad or 11ae
[1] = Table 1, read-out: IC50 (μM) Chymotrypsin-like activity
[2] = Table 5, read-out: IC50 (μM) Chymotrypsin-like

SMILES: CCCc1ccc(OCC(=O)N(Cc2nc(-c3cnccn3)no2)C(C)C)cc1 [11am, N-Isopropyl-2-(4-propylphenoxy)-N-((3-(pyrazin-2-yl)-1,2,4-oxadiazol-5-yl)methyl)acetamide]
IC50 [1]: 0.105 ± 0.031 µM | fold loss of CT-L activity: 3 fold

SMILES: Cc1ccc(OCC(=O)N(CCc2nc(-c3ccccc3)no2)C(C)C)cc1 [drawing 144]
inhibition at 10 µM (Table 5, @ 10 μM): 31.4 ± 11.2%

SMILES: CCCc1ccc(O[C@@H](C)C(=O)N(Cc2nc(-c3cccnc3)no2)C(C)C)cc1 (single isomer, unassigned) [16f]
IC50 (Table 3, read-out: IC50 (μM) CT-L): 2.18 ± 0.28 µM

SMILES: Cc1ccc(OCC(=O)N(Cc2nc(-c3ccc(C(F)(F)F)cc3)no2)C(C)C)cc1 [11n, N-Isopropyl-2-(p-tolyloxy)-N-((3-(4-(trifluoromethyl)phenyl)-1,2,4-oxadiazol-5-yl)methyl)acetamide]
IC50 [1]: 0.97 ± 0.15 µM | IC50 (read-out: IC50, in vitro CT-L): ~1 µM

SMILES: CC(C)N(Cc1nc(-c2ccccc2)no1)C(=O)COc1ccc(O)cc1 [drawing 156]
inhibition at 10 µM (Table 5, @ 10 μM): -5.85 ± 23.4% | IC50 [2]: 10.1 ± 4.52 µM

SMILES: CC(C)N(Cc1nc(-c2ccccc2)no1)C(=O)CCc1ccc(C(F)(F)F)cc1 [compound 41]
CT-L inhibitory activity, in words: activity was diminished

SMILES: Cc1ccc(OCC(=O)N(Cc2nc(-c3ccccc3)no2)C(C)C)cc1 [drawing 139]
IC50 [2]: 0.22 ± 0.084 µM

SMILES: CC(C)N(Cc1nc(-c2ccccc2)no1)C(=O)COc1ccc(C(=O)O)cc1 [drawing 143]
Screening Results (% Inhibition @ 10 μM) Chymotrypsin-like (Table 5, @ 10 μM, 10 µM): 27.76 ± 20.83 (n = 5) %

SMILES: CC(C)N(Cc1nc(-c2ccc(C(F)(F)F)cc2)no1)C(=O)COc1ccc(Cl)cc1 [drawing 120]
IC50 [2]: 1.4 ± 0.185 µM

Results, then the molecule that gave them:

CT-L inhibitory activity, in words: failed to improve the CT-L activity | IC50 [1]: 0.436 ± 0.073 µM
SMILES: CC(C)c1ccc(OCC(=O)N(Cc2nc(-c3cccnc3)no2)C(C)C)cc1 [11ai, N-Isopropyl-2-(4-isopropylphenoxy)-N-((3-(pyridin-3-yl)-1,2,4-oxadiazol-5-yl)methyl)acetamide]

inhibition at 10 µM (Table 5, @ 10 μM): < 70%
SMILES: CC(C)N(Cc1nc(-c2ccccc2)no1)C(=O)COc1ccc2cc(Br)ccc2c1 [drawing 133]

IC50 [2]: 0.14 ± 0.052 µM
SMILES: CC(C)Cc1ccc(OCC(=O)N(Cc2nc(-c3cccnc3)no2)C(C)C)cc1 [drawing 173]

inhibition at 10 µM (Table 5, @ 10 μM): 78.4 ± 6.33% | IC50 [2]: 0.98 ± 0.5 µM
SMILES: CC(C)N(Cc1nc(-c2cccnc2)no1)C(=O)COc1ccc(O)cc1 [drawing 155]

IC50 [2]: 0.436 ± 0.073 µM
SMILES: CC(C)c1ccc(OCC(=O)N(Cc2nc(-c3cccnc3)no2)C(C)C)cc1 [drawing 171]

CT-L inhibitory activity, in words: loss of in vitro activity | IC50 [1]: > 10 µM
SMILES: Cc1ccccc1OCC(=O)N(Cc1nc(-c2ccccc2)no1)C(C)C [11p, N-Isopropyl-N-((3-phenyl-1,2,4-oxadiazol-5-yl)methyl)-2-(o-tolyloxy)acetamide]

IC50 [1]: 0.428 ± 0.038 µM | fold loss of CT-L activity: 13 fold
SMILES: CCCCCCc1ccc(OCC(=O)N(Cc2nc(-c3cccnc3)no2)C(C)C)cc1 [11ag, 2-(4-Hexylphenoxy)-N-isopropyl-N-((3-(pyridine-3-yl)-1,2,4-oxadiazol-5-yl)methyl)acetamide]

IC50 (read-out: IC50, in vitro CT-L): 0.37 ± 0.04 µM
SMILES: Cc1ccc(OCC(=O)N(Cc2nc(-c3ccncc3)no2)C(C)C)cc1 [11y, N-Isopropyl-N-((3-(pyridin-4-yl)-1,2,4-oxadizaol-5-yl)methyl)-2-(p-tolyloxy)acetamide]

IC50 [1]: 1.08 ± 0.33 µM | IC50 (read-out: IC50, in vitro CT-L): ~1 µM
SMILES: Cc1ccc(-c2noc(CN(C(=O)COc3ccc(C(F)(F)F)cc3)C(C)C)n2)cc1 [11a, N-Isopropyl-N-((3-p-tolyl-1,2,4-oxadiazol-5-yl)methyl)-2-(4-(trifluoromethyl)phenoxy)acetamide]

IC50 [2]: 0.289 µM
SMILES: CCCc1ccc(OC(C)C(=O)N(Cc2nc(-c3cccnc3)no2)C(C)C)cc1 (racemic) [drawing 177]

IC50 (read-out: IC50, in vitro CT-L): 0.214 µM
SMILES: Cc1ccc(O[C@@H](C)C(=O)N(Cc2nc(-c3cccnc3)no2)C(C)C)cc1 [16b, (S)—N-Isopropyl-N-((3-(pyridine-3-yl)-1,2,4-oxadiazol-5-yl)methyl)-2-(p-tolyloxy)propanamide]
